In ChEMBL document CHEMBL4507274 (2021):

Key:
[1] = target: Tyrosine-protein kinase ABL1 (Homo sapiens) (UniProt P00519); experiment: Abl (h) Upstate kinase activity assay; settings: Compound concentration 10.0 uM
[2] = target: T1, Cytoplasmic tyrosine-protein kinase BMX (Homo sapiens) (UniProt P51813); experiment: Bmx (h) Upstate kinase activity assay; settings: Compound concentration 10.0 uM
T1 sequence (whole entry): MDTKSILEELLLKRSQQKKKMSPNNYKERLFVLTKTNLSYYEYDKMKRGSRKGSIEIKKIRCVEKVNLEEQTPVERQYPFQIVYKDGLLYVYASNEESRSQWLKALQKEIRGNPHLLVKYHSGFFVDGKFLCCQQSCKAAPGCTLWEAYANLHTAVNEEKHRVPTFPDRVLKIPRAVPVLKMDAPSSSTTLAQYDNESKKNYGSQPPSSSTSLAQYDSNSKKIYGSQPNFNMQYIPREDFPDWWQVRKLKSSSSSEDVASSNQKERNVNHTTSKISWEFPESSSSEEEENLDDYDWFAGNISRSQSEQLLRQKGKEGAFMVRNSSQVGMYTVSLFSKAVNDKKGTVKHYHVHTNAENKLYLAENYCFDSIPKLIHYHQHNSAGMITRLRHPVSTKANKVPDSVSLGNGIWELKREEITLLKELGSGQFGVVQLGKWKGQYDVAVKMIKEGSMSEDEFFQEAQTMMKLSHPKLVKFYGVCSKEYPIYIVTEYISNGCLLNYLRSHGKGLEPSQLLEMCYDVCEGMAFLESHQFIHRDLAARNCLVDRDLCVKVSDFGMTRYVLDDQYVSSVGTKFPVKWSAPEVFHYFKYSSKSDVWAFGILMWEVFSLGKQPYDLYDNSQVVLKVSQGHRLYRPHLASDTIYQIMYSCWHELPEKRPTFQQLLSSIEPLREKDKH

[3] = target: Tyrosine-protein kinase BTK (Homo sapiens) (UniProt Q06187); experiment: BTK (h) Upstate kinase activity assay; settings: Compound concentration 10.0 uM
[4] = target: Calcium/calmodulin-dependent protein kinase type II subunit gamma (Rattus norvegicus) (UniProt P11730); experiment: CaMKII (r) Upstate kinase activity assay; settings: Compound concentration 10.0 uM
[5] = target: Tyrosine-protein kinase Fes/Fps (Homo sapiens) (UniProt P07332); experiment: Fes (h) Upstate kinase activity assay; settings: Compound concentration 10.0 uM
[6] = target: T2, Dual specificity mitogen-activated protein kinase kinase 6 (Homo sapiens) (UniProt P52564); experiment: MKK6 (h) Upstate kinase activity assay; settings: Compound concentration 10.0 uM
T2 sequence (whole entry): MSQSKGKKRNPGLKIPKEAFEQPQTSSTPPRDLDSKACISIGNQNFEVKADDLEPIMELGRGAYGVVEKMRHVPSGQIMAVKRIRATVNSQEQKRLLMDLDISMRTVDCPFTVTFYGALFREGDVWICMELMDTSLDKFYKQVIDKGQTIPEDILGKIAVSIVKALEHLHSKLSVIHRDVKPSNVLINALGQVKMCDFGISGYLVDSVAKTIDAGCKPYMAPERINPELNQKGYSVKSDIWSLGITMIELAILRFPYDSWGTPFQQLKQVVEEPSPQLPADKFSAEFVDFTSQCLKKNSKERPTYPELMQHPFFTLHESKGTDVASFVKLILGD

[7] = target: Ribosomal protein S6 kinase alpha-5 (Homo sapiens) (UniProt O75582); experiment: MSK1 (h) Upstate kinase activity assay; settings: Compound concentration 10.0 uM
[8] = target: Ribosomal protein S6 kinase beta-1 (Homo sapiens) (UniProt P23443); experiment: […] (h) Upstate kinase activity assay; settings: Compound concentration 10.0 uM
[9] = target: Protein kinase C beta type (Homo sapiens) (UniProt P05771); experiment: PKCBII(h) Upstate kinase activity assay; settings: Compound concentration 10.0 uM
[10] = target: Serine/threonine-protein kinase N2 (Homo sapiens) (UniProt Q16513); experiment: PRK2 (h) Upstate kinase activity assay; settings: Compound concentration 10.0 uM
[11] = target: Proto-oncogene tyrosine-protein kinase ROS (Homo sapiens) (UniProt P08922); experiment: Ros (h) Upstate kinase activity assay; settings: Compound concentration 10.0 uM
[12] = target: T3, Mitogen-activated protein kinase 12 (Homo sapiens) (UniProt P53778); experiment: SAPK3 (h) Upstate kinase activity assay; settings: Compound concentration 10.0 uM
T3 sequence (whole entry): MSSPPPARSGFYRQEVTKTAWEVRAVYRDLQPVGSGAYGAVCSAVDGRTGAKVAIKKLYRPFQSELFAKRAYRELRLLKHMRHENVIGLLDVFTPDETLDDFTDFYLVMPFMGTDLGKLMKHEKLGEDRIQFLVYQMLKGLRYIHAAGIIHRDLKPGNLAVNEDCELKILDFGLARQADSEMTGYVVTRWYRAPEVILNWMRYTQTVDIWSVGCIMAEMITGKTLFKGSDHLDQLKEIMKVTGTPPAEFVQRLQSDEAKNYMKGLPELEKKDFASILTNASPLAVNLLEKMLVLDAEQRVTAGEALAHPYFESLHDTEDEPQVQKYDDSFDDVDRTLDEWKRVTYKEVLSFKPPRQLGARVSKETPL

[13] = target: Angiopoietin-1 receptor (Homo sapiens) (UniProt Q02763); experiment: Tie2 (h) Upstate kinase activity assay; settings: Compound concentration 10.0 uM
T47D = experiment: Breast T-47D cell line MDS Pharma Services Proliferation Assay; assay type: functional, cell-based, Homo sapiens
A549 = experiment: Lung A549 cell line MDS Pharma Services Proliferation Assay; assay type: functional, cell-based, Homo sapiens
[14] = target: Sigma intracellular receptor 2 (Homo sapiens) (UniProt Q5BJF2); settings: Compound concentration 10.0 uM
[15] = system: Epidermal growth factor receptor (Homo sapiens), P00533 [UNDEFINED MUTATION]; settings: Compound concentration 100.0 nM

Ribosomal protein S6 kinase alpha-5 (Homo sapiens), sequence (O75582 whole entry, looked up): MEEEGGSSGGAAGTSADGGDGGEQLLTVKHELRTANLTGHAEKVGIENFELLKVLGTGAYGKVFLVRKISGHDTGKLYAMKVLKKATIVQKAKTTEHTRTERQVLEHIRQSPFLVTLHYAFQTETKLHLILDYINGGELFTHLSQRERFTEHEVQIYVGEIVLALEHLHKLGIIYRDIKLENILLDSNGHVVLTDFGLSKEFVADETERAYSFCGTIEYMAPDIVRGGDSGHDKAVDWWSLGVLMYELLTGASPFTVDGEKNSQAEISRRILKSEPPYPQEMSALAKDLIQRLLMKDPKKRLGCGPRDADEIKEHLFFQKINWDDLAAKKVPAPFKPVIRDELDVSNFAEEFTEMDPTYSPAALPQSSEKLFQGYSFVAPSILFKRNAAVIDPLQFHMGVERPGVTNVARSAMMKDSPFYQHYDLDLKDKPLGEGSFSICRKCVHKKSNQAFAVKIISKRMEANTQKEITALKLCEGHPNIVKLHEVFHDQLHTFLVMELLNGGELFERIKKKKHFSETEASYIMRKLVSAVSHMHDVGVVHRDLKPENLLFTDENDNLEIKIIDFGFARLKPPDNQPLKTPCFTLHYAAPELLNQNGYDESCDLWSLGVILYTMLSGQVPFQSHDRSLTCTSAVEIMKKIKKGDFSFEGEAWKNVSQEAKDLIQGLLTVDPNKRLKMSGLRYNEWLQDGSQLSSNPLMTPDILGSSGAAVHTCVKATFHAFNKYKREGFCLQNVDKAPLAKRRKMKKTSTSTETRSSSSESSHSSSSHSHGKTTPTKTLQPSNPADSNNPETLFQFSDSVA
Ribosomal protein S6 kinase beta-1 (Homo sapiens), sequence (P23443 whole entry, looked up): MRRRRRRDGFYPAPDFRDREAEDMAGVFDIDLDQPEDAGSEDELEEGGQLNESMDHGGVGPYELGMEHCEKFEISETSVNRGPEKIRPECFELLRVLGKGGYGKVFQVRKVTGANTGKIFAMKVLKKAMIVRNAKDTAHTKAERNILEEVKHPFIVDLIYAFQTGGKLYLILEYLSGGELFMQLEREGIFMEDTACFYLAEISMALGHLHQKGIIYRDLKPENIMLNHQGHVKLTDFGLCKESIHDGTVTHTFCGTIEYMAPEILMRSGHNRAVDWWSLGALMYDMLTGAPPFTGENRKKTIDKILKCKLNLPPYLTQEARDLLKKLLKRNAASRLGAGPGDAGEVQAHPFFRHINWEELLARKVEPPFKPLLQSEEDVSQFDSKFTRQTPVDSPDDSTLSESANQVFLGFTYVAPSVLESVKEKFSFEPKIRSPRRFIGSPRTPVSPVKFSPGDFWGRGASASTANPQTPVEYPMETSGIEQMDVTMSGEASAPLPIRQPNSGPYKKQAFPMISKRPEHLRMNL
Protein kinase C beta type (Homo sapiens), sequence (P05771 2-671 limits assumed): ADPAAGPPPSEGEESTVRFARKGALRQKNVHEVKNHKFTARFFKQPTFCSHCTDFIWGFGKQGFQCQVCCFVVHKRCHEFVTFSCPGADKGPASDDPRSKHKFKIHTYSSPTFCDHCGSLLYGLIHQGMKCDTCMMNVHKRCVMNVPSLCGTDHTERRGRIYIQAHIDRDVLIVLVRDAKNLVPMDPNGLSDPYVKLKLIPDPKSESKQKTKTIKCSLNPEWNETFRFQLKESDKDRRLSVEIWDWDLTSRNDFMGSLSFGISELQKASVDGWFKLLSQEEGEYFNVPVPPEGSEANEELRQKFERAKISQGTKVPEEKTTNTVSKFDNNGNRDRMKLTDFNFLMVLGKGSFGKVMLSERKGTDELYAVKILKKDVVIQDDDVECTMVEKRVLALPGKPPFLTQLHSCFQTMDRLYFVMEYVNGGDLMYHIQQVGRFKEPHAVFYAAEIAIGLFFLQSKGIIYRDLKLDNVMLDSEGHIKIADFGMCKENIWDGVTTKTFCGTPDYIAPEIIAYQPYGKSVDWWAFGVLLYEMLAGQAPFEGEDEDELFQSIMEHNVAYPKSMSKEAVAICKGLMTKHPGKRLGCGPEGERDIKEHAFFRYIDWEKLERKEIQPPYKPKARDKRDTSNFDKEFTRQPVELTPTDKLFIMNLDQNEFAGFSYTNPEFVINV
Tyrosine-protein kinase Fes/Fps (Homo sapiens), sequence (P07332 whole entry): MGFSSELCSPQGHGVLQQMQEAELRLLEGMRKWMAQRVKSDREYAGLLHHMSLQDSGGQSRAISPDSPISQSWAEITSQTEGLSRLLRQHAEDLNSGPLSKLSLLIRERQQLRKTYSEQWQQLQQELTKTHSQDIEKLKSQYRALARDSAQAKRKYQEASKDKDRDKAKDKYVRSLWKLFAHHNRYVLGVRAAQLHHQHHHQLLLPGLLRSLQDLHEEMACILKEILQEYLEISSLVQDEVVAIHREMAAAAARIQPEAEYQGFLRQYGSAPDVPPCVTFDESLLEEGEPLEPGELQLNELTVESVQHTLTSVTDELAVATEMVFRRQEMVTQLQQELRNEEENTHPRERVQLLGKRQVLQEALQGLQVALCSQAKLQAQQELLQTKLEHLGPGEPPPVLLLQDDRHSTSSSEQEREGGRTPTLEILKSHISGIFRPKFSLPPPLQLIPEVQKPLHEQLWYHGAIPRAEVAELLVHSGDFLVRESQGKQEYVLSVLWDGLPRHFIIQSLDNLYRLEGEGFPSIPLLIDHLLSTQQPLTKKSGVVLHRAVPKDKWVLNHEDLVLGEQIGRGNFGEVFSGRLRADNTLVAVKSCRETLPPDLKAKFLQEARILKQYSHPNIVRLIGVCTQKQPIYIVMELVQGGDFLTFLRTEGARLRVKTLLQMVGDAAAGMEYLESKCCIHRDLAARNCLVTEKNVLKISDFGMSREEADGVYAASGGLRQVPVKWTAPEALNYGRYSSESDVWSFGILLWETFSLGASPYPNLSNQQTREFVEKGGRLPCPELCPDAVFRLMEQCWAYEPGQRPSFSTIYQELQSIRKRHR
Angiopoietin-1 receptor (Homo sapiens), sequence (Q02763 whole entry): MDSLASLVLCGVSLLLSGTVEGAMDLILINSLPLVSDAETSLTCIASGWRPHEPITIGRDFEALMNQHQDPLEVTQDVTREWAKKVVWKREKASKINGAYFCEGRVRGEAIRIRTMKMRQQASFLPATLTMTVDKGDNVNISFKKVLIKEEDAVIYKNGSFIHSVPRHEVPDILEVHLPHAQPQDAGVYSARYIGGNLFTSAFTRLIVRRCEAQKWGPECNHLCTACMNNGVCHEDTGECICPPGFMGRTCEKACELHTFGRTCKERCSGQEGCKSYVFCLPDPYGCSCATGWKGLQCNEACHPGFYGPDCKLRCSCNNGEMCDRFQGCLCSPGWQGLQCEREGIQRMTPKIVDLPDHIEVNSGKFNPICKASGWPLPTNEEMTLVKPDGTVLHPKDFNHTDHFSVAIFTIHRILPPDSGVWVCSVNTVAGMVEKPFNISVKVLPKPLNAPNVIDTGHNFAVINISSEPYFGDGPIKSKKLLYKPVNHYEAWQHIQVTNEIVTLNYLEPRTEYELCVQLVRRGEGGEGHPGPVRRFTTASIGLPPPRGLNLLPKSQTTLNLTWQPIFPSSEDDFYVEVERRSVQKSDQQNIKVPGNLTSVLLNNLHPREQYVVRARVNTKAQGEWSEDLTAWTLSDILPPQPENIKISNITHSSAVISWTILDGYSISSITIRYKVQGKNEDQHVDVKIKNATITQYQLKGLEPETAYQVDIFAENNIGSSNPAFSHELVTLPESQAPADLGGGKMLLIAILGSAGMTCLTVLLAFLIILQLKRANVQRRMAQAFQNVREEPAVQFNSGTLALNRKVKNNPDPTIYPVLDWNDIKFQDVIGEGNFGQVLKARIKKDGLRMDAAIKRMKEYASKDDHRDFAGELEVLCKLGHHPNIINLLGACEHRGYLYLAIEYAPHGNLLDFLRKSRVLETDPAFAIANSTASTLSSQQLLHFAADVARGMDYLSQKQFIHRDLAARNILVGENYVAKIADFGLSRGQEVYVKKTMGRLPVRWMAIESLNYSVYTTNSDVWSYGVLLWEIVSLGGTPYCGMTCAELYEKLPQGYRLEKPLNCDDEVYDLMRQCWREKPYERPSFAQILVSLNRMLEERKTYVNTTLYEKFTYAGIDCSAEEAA
Tyrosine-protein kinase BTK (Homo sapiens), sequence (Q06187 whole entry): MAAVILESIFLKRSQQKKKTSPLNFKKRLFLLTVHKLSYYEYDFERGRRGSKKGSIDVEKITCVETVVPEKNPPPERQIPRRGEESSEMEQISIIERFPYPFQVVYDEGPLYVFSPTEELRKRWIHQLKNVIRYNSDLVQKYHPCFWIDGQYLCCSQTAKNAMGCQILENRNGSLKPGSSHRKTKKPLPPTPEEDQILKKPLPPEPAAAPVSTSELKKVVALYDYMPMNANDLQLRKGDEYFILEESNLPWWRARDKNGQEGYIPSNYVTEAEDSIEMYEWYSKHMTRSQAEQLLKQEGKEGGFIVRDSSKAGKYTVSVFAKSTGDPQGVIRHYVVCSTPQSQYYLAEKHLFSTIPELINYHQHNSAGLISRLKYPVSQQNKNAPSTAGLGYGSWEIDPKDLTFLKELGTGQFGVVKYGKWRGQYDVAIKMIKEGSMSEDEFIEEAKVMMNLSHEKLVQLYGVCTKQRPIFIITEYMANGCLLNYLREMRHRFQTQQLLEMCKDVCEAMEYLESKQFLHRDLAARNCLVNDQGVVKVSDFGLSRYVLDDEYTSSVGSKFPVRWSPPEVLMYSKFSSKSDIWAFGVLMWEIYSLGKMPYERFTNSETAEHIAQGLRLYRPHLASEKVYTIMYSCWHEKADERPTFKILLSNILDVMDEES
Sigma intracellular receptor 2 (Homo sapiens), sequence (Q5BJF2 whole entry): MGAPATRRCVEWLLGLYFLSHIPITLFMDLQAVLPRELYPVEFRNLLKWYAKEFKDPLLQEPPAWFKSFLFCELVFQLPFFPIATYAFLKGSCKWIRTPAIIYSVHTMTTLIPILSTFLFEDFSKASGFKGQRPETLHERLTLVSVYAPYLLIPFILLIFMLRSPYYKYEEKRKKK

## Cc1c[nH]c2nccc(Oc3c(F)cc(Nc4cc(Cl)nc(N)n4)cc3F)c12 [BAY-549]
[1]
  inhibition: 14%
[2]
  inhibition: 18%
[3]
  inhibition: 1%
[4]
  inhibition: 7%
[5]
  inhibition: 28%
[6]
  inhibition: 6%
[7]
  inhibition: 86%
[8]
  inhibition: 84%
[9]
  inhibition: 9%
[10]
  inhibition: 70%
[11]
  inhibition: 10%
[12]
  inhibition: 4%
[13]
  inhibition: 26%
T47D; Homo sapiens, T47D
  IC50: 2.9 µM
  TGI: 15 µM
T47D; Homo sapiens, T47D, read-out: LC50 (the source's name)
  CC50: 75 µM
T47D; ± SEM 1 % growth
  Mean % growth (n = 2) for 1.0 µM probe concentration: 86%
T47D; ± SEM 2 % growth
  Mean % growth (n = 2) for 100.0 µM probe concentration: -45%
T47D; ± SEM 4 % growth
  Mean % growth (n = 2) for 10.0 µM probe concentration: -2%
T47D; ± SEM 6 % growth
  Mean % growth (n = 2) for 0.01 µM probe concentration: 106%
T47D; ± SEM 8 % growth
  Mean % growth (n = 2) for 0.1 µM probe concentration: 97%
A549; Homo sapiens, A549
  IC50: 1.5 µM
  TGI: 25 µM
A549; Homo sapiens, A549, read-out: LC50 (the source's name)
  CC50: > 100 µM
A549; ± SEM 2 % growth
  Mean % growth (n = 2) for 1.0 µM probe concentration: 42%
  Mean % growth (n = 2) for 10.0 µM probe concentration: 7%
A549; ± SEM 3 % growth
  Mean % growth (n = 2) for 100.0 µM probe concentration: -15%
A549; ± SEM 4 % growth
  Mean % growth (n = 2) for 0.01 µM probe concentration: 103%
  Mean % growth (n = 2) for 0.1 µM probe concentration: 97%
[14]
  inhibition: 31.9%

## Cn1cc(Cl)c2c(Oc3c(F)cc(Nc4cc(Cl)nc(N)n4)cc3F)ccnc21 [BAY-4900]
[15]
  residual activity: 52%
